From ChEMBL document CHEMBL5252531, “2015 Philip S. Portoghese Medicinal Chemistry Lectureship. Curing Hepatitis C Virus Infection with Direct-Acting Antiviral Agents: The Arc of a Medicinal Chemistry Triumph” (J Med Chem, 2016)

Key:
[1] = system: Hepatitis C virus; assay: Antiviral activity against HCV GT1b-genotype assessed as inhibition of viral replication; type: functional, organism-based, Hepacivirus hominis
[2] = system: Bovine viral diarrhea virus 1; assay: Antiviral activity against Bovine viral diarrhea virus 1 infected in MDBK cells assessed as reduction in viral replication; type: functional, organism-based; settings: Bovine viral diarrhea virus isolates and strains
[3] = system: Bovine viral diarrhea virus 1; assay: Antiviral activity against Bovine viral diarrhea virus 1; type: functional, organism-based; settings: Bovine viral diarrhea virus isolates and strains
[4] = system: Human immunodeficiency virus 1; assay: Antiviral activity against HIV-1; type: functional, organism-based
[5] = system: Human rhinovirus sp.; assay: Antiviral activity against HRV; type: functional, organism-based
[6] = system: Respiratory syncytial virus; assay: Antiviral activity against RSV; type: functional, organism-based; settings: human respiratory syncytial virus
[7] = Cytotoxicity against human HEK293 cells assessed as reduction in cell viability […] after 72 hrs by alamar blue assay; type: toxicity, cell-based
[8] = system: Huh-7; assay: Cytotoxicity against human Huh-7 cells assessed as reduction in cell viability […] after 72 hrs by alamar blue assay; type: functional
[9] = Cytotoxicity against African green monkey Vero cells assessed as reduction in cell viability […] after 72 hrs by alamar blue assay; type: toxicity, cell-based; settings: chlorocebus sabaeus
[10] = Cytotoxicity against human MRC5 cells assessed as reduction in cell viability measured after 72 hrs by alamar blue assay; type: toxicity, cell-based
[11] = system: HeLa; assay: Cytotoxicity against human HeLa cells assessed as reduction in cell viability measured after 72 hrs by Alamar blue assay; type: functional
[12] = Cytotoxicity against human MT2 cells assessed as cell viability measured after 72 hrs by MTT assay; type: toxicity, cell-based
[13] = system: Hepatitis C virus; assay: Antiviral activity against HCV genotype 1b expressing NS5B S365A mutant variant; type: functional, organism-based, Hepacivirus hominis
[14] = system: Hepatitis C virus; assay: Antiviral activity against HCV genotype 1a; type: functional, organism-based, Hepacivirus hominis
[15] = system: Hepatitis C virus; assay: Antiviral activity against HCV genotype 1b; type: functional, organism-based, Hepacivirus hominis
[16] = Oral bioavailability in rat at 3 mg/kg; type: ADME, organism-based; settings: in vivo
[17] = Drug concentration in Beagle dog plasma at 6 mg/kg, po measured after 24 hrs by LC-MS/MS analysis; type: ADME, organism-based, Canis lupus familiaris
[18] = Drug concentration in Sprague-Dawley rat plasma at 15 mg/kg, po measured after 24 hrs by LC-MS/MS analysis; type: ADME, organism-based
[19] = Drug concentration in cynomolgus monkey liver at 10 mg/kg, po measured after 24 hrs by LC-MS/MS analysis; type: ADME, organism-based, Macaca fascicularis; settings: read-out: Ct
[20] = Drug concentration in Beagle dog liver at 6 mg/kg, po measured after 24 hrs by LC-MS/MS analysis; type: ADME, organism-based, Canis lupus familiaris; settings: read-out: Ct
[21] = Drug concentration in Sprague-Dawley liver at 15 mg/kg, po measured after 24 hrs by LC-MS/MS analysis; type: ADME, organism-based; settings: rat, read-out: Ct
[22] = Drug concentration in FVB mouse liver at 5 mg/kg, po measured after 24 hrs by LC-MS/MS analysis; type: ADME, organism-based; settings: read-out: Ct
[23] = AUC in FVB mouse at 5 mg/kg, po measured after 24 hrs by LC-MS/MS analysis; type: ADME, organism-based; design: dose 5 mg/kg, time 24 hrs, route po; settings: in vivo
[24] = system: Hepatitis C virus; assay: Inhibition of HCV genotype 1a; type: functional, organism-based, Hepacivirus hominis
[25] = system: Hepatitis C virus; assay: Inhibition of HCV genotype 1b; type: functional, organism-based, Hepacivirus hominis
[26] = system: Hepatitis C virus; assay: Inhibition of HCV genotype 2a; type: functional, organism-based, Hepacivirus hominis
[27] = system: Hepatitis C virus; assay: Inhibition of HCV genotype 2b; type: functional, organism-based, Hepacivirus hominis
[28] = system: Hepatitis C virus; assay: Inhibition of HCV genotype 3a; type: functional, organism-based, Hepacivirus hominis
[29] = system: Hepatitis C virus; assay: Inhibition of HCV genotype 4a; type: functional, organism-based, Hepacivirus hominis
[30] = system: Hepatitis C virus; assay: Inhibition of HCV genotype 5a; type: functional, organism-based, Hepacivirus hominis
[31] = system: Hepatitis C virus; assay: Inhibition of HCV genotype 6a; type: functional, organism-based, Hepacivirus hominis
[32] = system: Hepatitis C virus; assay: Antiviral activity against HCV genotype 2a; type: functional, organism-based, Hepacivirus hominis
[33] = system: Hepatitis C virus; assay: Antiviral activity against HCV genotype 3a; type: functional, organism-based, Hepacivirus hominis
[34] = system: Hepatitis C virus; assay: Antiviral activity against HCV genotype 4a; type: functional, organism-based, Hepacivirus hominis
[35] = AUC in Sprague-Dawley rat at 15 mg/kg, po measured after 24 hrs by LC-MS/MS analysis; type: ADME, organism-based; design: dose 15 mg/kg, time 24 hrs, route po; settings: in vivo
[36] = AUC in Beagle dog at 3 mg/kg, po measured after 24 hrs by LC-MS/MS analysis; type: ADME, organism-based, Canis lupus familiaris; design: dose 3 mg/kg, time 24 hrs, route po; settings: in vivo
[37] = AUC in cynomolgus monkey at 3mg/kg, po measured after 24 hrs by LC-MS/MS analysis; type: ADME, organism-based, Macaca fascicularis; design: time 24 hrs, route po; settings: in vivo
[38] = system: Hepatitis C virus; assay: Antiviral activity against Hepatitis C virus infected RNA assessed as reduction in viral replication at 200 mg, po BID measured for 3 days; type: functional, Hepacivirus hominis; settings: time 3 day
[39] = system: Hepatitis C virus; assay: Antiviral activity against Hepatitis C virus infected RNA assessed as reduction in viral replication at 400 mg, po BID measured for 3 days; type: functional, Hepacivirus hominis; settings: time 3 day
[40] = system: Hepatitis C virus; assay: Antiviral activity against Hepatitis C virus infected RNA assessed as reduction in viral replication at 600 mg, po BID measured for 3 days; type: functional, Hepacivirus hominis; settings: time 3 day
[41] = in vivo; settings: cynomolgus monkey, iv, 1 mg/kg
Description: Half life in cynomolgus monkey at 1 mg/kg, iv measured after 24 hrs by HPLC method

[42] = in vivo; settings: cynomolgus monkey, po, 3 mg/kg
[43] = in vivo; settings: Sprague-Dawley, rat, iv, 5 mg/kg
Description: Half life in Sprague-Dawley rat at 5 mg/kg, iv measured after 24 hrs by HPLC method

[44] = in vivo; settings: FVB, mouse, po, 5 mg/kg
[45] = in vivo; settings: male, Sprague-Dawley, rat, po, 15 mg/kg
[46] = in vivo; settings: FVB, mouse, iv, 2 mg/kg
Description: Half life in FVB mouse at 2 mg/kg, iv measured after 24 hrs by HPLC method

[47] = in vivo; settings: beagle, dog, iv, 1 mg/kg
Description: Half life in Beagle dog at 1 mg/kg, iv measured after 24 hrs by HPLC method

[48] = system: Hepatitis C virus; assay: Antiviral activity against HCV genotype 1b by replicon assay; type: functional, organism-based, Hepacivirus hominis
[49] = biological target: T1, Hepatitis C virus serine protease, NS3/NS4A (Hepatitis C virus, UniProt A3EZI9+D2K2A8); assay: Inhibition of HCV NS4A-NS3 protease; type: protein-complex assay, Hepacivirus hominis
[50] = biological target: T1, Hepatitis C virus serine protease, NS3/NS4A; assay: Inhibition of C-terminal HCV NS4A-NS3 protease; type: protein-complex assay, Hepacivirus hominis
[51] = system: Hepatitis C virus; assay: Antiviral activity against Hepatitis C virus; type: functional, organism-based, Hepacivirus hominis
[52] = Oral bioavailability in rat plasma; type: ADME, organism-based; settings: in vivo
[53] = system: Hepatitis C virus; assay: Antiviral activity against HCV GT1a-genotype assessed as inhibition of viral replication; type: functional, organism-based, Hepacivirus hominis
[54] = system: Hepatitis C virus; assay: Antiviral activity against HCV GT1b-genotype assessed as viral growth inhibition measured after 24 hrs; type: functional, organism-based, Hepacivirus hominis; settings: Hepatitis C virus, GT1b-genotype, 24 h
[55] = Solubility in water at pH 7; type: physicochemical

T1 sequence (D2K2A8 whole entry): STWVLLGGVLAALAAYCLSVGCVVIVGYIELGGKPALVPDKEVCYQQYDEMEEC
T1 sequence (A3EZI9 whole entry): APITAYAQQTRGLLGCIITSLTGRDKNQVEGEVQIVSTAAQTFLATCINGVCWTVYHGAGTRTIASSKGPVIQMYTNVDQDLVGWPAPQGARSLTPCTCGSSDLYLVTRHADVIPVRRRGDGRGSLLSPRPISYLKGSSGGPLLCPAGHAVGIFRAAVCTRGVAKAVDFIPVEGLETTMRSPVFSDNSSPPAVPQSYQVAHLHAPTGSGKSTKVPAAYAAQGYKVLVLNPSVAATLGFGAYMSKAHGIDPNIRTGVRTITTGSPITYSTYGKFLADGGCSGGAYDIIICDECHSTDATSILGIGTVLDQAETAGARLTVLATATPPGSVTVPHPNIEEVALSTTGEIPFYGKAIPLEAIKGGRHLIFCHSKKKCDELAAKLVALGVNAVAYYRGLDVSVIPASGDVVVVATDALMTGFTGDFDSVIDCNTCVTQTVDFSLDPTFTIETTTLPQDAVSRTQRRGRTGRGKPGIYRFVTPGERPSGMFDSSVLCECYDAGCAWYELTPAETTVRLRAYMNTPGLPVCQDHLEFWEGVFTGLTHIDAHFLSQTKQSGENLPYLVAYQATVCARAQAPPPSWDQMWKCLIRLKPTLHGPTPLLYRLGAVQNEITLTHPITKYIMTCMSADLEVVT

C[C@H](NC(=O)OCc1ccccc1)C(=O)Nc1ccc(C2S/C(=N\c3cccc(F)c3)N(Cc3ccco3)C2=O)cc1 (some centres undefined)
EC50 [1]: 570 nM | EC50 [2]: 24000 nM | EC50 [3]: 17000 nM | EC50 [4]: 41000 nM | EC50 [5]: > 100000 nM | EC50 [6]: 23000 nM | CC50 at 72 h [7]: > 50000 nM | CC50 [8]: > 100000 nM | CC50 at 72 h [9]: > 150000 nM | CC50 at 72 h [10]: 41000 nM | CC50 [11]: > 100000 nM | CC50 at 72 h [12]: 23000 nM

O=C(O)/C=C/c1ccc(NC(=O)C2(NC(=O)c3ccc4c(C5CCCCC5)c5n(c4c3)CC(=O)Nc3ccccc3-5)CCCC2)cc1
EC50 [13]: 8 nM

O=C1Cn2c(c(C3CCCCC3)c3ccc(C(=O)O)cc32)-c2ccccc2N1
EC50 [14]: < 10 nM | EC50 [15]: < 10 nM | EC50 [13]: 170 nM | bioavailability [16]: 17%

C=C[C@@H]1C[C@]1(NC(=O)[C@@H]1C[C@@H](Oc2ncc(OC)c3ccc(Cl)cc23)CN1C(=O)[C@@H](NC(=O)OC(C)(C)C)C(C)(C)C)C(=O)NS(=O)(=O)C1CC1
concentration at 24 h [17]: 6 nM | concentration at 24 h [18]: 40 nM | concentration at 24 h [19]: 440 nM | concentration at 24 h [20]: 2500 nM | concentration at 24 h [21]: 1200 nM | concentration at 24 h [22]: 710 nM | AUC at 24 h [23]: 0.54 µM·h | IC50 [24]: 0.7 nM | IC50 [25]: 0.3 nM | IC50 [26]: 15 nM | IC50 [27]: 78 nM | IC50 [28]: 320 nM | IC50 [29]: 1.6 nM | IC50 [30]: 1.7 nM | IC50 [31]: 0.9 nM | EC50 [15]: 1.2 nM | EC50 [32]: 230 nM | EC50 [33]: 1160 nM | EC50 [34]: 1.8 nM | AUC at 24 h [35]: 1 µM·h | AUC at 24 h [36]: 2.2 µM·h | AUC at 24 h [37]: 0.41 µM·h | Activity [38]: 3.09 log10 IU/mL | Activity [39]: 3.57 log10 IU/mL | Activity [40]: 2.84 log10 IU/mL | half-life at 24 h [41]: 1.3 h | bioavailability [42]: 11% | half-life at 24 h [43]: 4.2 h | bioavailability [44]: 28% | bioavailability [45]: 14% | half-life at 24 h [46]: 4.6 h | half-life at 24 h [47]: 1 h

O=C(Nc1ccc(/C=C/c2ccc(NC(=O)[C@@H]3CCCN3C(=O)CC3CC3)cc2)cc1)[C@@H]1CCCN1C(=O)CC1CC1
EC50 [15]: 62 nM

C=C[C@@H]1C[C@]1(NC(=O)[C@@H]1C[C@@H](Oc2cc(-c3ccccc3)nc3cc(OC)ccc23)CN1C(=O)[C@@H](NC(=O)OC(C)(C)C)C(C)(C)C)C(=O)O
EC50 [48]: 550 nM | IC50 [24]: 54 nM

COc1ccc2c(O[C@@H]3C[C@H]4C(=O)N[C@]5(C(=O)O)C[C@H]5/C=C\CCCCC[C@H](NC(=O)OC(C)(C)C)C(=O)N4C3)cc(-c3ccccc3)nc2c1
IC50 [49]: 3 nM | IC50 [50]: 11 nM | EC50 [51]: 1.2 nM | F [52]: 42%

CN(C)S(=O)(=O)NC(=O)c1ccc2c(C3CCCCC3)c3n(c2c1)C[C@@]1(C(=O)N2CCOCC2)C[C@H]1c1ccccc1-3
EC50 [53]: 41 nM | EC50 [54]: 51 nM

O=C(O)c1ccc2c(C3CCCCC3)c3n(c2c1)CC(C(=O)N1CCOCC1)=Cc1ccccc1-3
EC50 [53]: 404 nM | EC50 [54]: 359 nM

CN(C)S(=O)(=O)NC(=O)c1ccc2c(C3CCCCC3)c3n(c2c1)CC(C(=O)N1CCOCC1)=Cc1ccccc1-3
solubility [55]: < 1 µg/mL | EC50 [53]: 119 nM | EC50 [54]: 148 nM

COc1ccc2c(c1)C=C(C(=O)N1CCOCC1)Cn1c-2c(C2CCCCC2)c2ccc(C(=O)NS(=O)(=O)N(C)C)cc21
EC50 [53]: 61 nM | EC50 [54]: 62 nM

CN(C)S(=O)(=O)NC(=O)c1ccc2c(C3CCCCC3)c3n(c2c1)C[C@]1(C(=O)N2CCOCC2)C[C@@H]1c1ccccc1-3
EC50 [53]: 472 nM | EC50 [54]: 336 nM

CN(C)[C@@H](C(=O)N1CCC[C@H]1c1ncc(-c2ccc(-c3ccc(-c4cnc([C@@H]5CCCN5C(=O)[C@@H](c5ccccc5)N(C)C)[nH]4)cc3)cc2)[nH]1)c1ccccc1
EC50 [14]: 0.037 nM | EC50 [15]: 0.042 nM
